Ten compounds from ChEMBL document CHEMBL1201862, “PubChem BioAssay data set” (2004) can be followed below.

Common to all, as to assay: NCI tumour cell line growth inhibition, 48 h
Assay [1] has as its system SF-268.
The test system of assay [2] is SW-620.
Assay [3] relates to HL-60.
The subject of assay [4] is T47D.
Assay [5] deals with PC-3.
For assay [6], the system named is UACC-62.
For assay [7], the system named is CAKI-1.
In assay [8] the test system is HOP-62.
The subject of assay [9] is DU-145.
For assay [10], the system named is OVCAR-8.
Assay [11] concerns OVCAR-3.
The subject of assay [12] is HT-29.
Assay [13] relates to NCI-H522.
The test system of assay [14] is M14.
Assay [15] deals with HOP-92.
Assay [16] deals with A498.
Assay [17] concerns K562.
The test system of assay [18] is SK-MEL-2.
Assay [19] deals with IGROV-1.
Assay [20] concerns MDA-MB-231.

SMILES strings stand for the structures.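 96-well plates; 48 h exposure; 5 concentrations. Endpoints by linear interpolation between flanking doses. Not reached: highest tested concentration assigned. Here, GI50 denotes the concentration required for 50% inhibition of growth.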 The source made the active and inactive calls. No stated cut-off is given here; in the data, active = GI50 up to about 1.1 µM and inactive = higher.

For `CCC1c2[nH]c3ccccc3c2C[C@H]2C(=O)NC(COC(C)(C)C)C(=O)N12` (stereo not given in full), the GI50 in assay [1] was 67.3 µM (inactive); in assay [2], 69 µM (inactive); in [3] it was 21.3 µM (inactive); in assay [4], 44.9 µM (inactive); in assay [5] it was 28.5 µM (inactive); in assay [6], 53.3 µM (inactive). The GI50 in assay [7] was 44.9 µM (inactive); in assay [8], 76.6 µM (inactive); in [9], 67.6 µM (inactive); in assay [10], 39.4 µM (inactive); in [11], 32 µM (inactive); in assay [12], 38.2 µM (inactive). For the same compound, the GI50 in [13] is 38.5 µM (inactive); in [14] it was 30.1 µM (inactive); in assay [15] it was 21.2 µM (inactive); in [16] it was 72.3 µM (inactive); in [17], 39.4 µM (inactive); in assay [18], 32.8 µM (inactive). Moreover, the GI50 in assay [19] is 29.8 µM (inactive); in [20] it was 36.9 µM (inactive).
With `[N-]=[N+]=CC(=O)COC(=O)c1ccccc1`, the GI50 in assay [1], in assay [2], in assay [3], in assay [4], in [5] and in assay [6] was > 100 µM (inactive) throughout. For the same compound, the GI50 in assay [7], in [8], in [9], in assay [10], in assay [11] and in assay [12] was > 100 µM (inactive) each time. For the same compound, the GI50 was > 100 µM (inactive) in assay [13]; > 100 µM (inactive) in [14]; 78 µM (inactive) in assay [15]; > 100 µM (inactive) in assay [16]; > 100 µM (inactive) in assay [17]; > 100 µM (inactive) in assay [18]. Besides, the GI50 in assay [19] and in [20] was > 100 µM (inactive) in each case.
With `c1ccc(COc2ccc(C[P+](c3ccccc3)(c3ccccc3)c3ccccc3)cc2)cc1`, the GI50 in assay [1] is 0.261 µM (active); in [2], 0.272 µM (active); in assay [3], 0.0682 µM (active); in assay [4], < 0.0175 µM (active); in assay [5], 0.131 µM (active); in [6], 0.195 µM (active). Moreover, the GI50 in assay [7] was 6.79 µM (inactive); in [8], 0.427 µM (active); in [9], 0.304 µM (active); in [10], 0.163 µM (active); in [11], 0.146 µM (active); in [12], 0.19 µM (active). Besides, the GI50 in assay [13] is 0.195 µM (active); in assay [14], 0.366 µM (active); in [15], 0.153 µM (active); in assay [16], 1.1 µM (active); in assay [17] it was 0.0556 µM (active); in assay [18], 0.109 µM (active). Also, the GI50 was 0.294 µM (active) in assay [19] and 0.776 µM (active) in assay [20].
For `COc1ccc2c(c1)c(=O)c1c(NCCN(C)C)ccc3c(=O)n(CCN(C)C)c(=O)n2c31`, the GI50 in assay [1] is 0.114 µM (active); in [2], < 0.0105 µM (active); in [3], 0.101 µM (active); in assay [4] it was 0.372 µM (active); in assay [5], 0.0925 µM (active); in assay [6], 0.156 µM (active). Moreover, the GI50 in [7] was 0.0283 µM (active); in assay [8] it was 0.0711 µM (active); in assay [9], 0.0883 µM (active); in assay [10] it was 0.0601 µM (active); in assay [11], 0.182 µM (active); in assay [12], 0.0197 µM (active). In addition, the GI50 was 0.0762 µM (active) in [13]; 0.159 µM (active) in assay [14]; 0.0483 µM (active) in assay [15]; 0.211 µM (active) in assay [16]; < 0.01 µM (active) in assay [17]; 0.182 µM (active) in assay [18]. Besides, the GI50 was < 0.0232 µM (active) in assay [19] and 0.191 µM (active) in [20].
For `O=C(c1ccccc1)c1ccc(C(c2c(O)c3ccccc3oc2=O)c2c(O)c3ccccc3oc2=O)cc1`, the GI50 in assay [1] is 22.5 µM (inactive); in assay [2] it was 43.9 µM (inactive); in [3], 34.1 µM (inactive); in assay [4] it was 34.2 µM (inactive); in assay [5] it was 27 µM (inactive); in assay [6] it was 17.3 µM (inactive). Besides, the GI50 in [7] was 16.8 µM (inactive); in [8] it was 28.7 µM (inactive); in assay [9], 31.2 µM (inactive); in assay [10] it was 27 µM (inactive); in assay [11], 26.2 µM (inactive); in assay [12] it was 25.1 µM (inactive). Besides, the GI50 is 16.6 µM (inactive) in assay [13]; 24.7 µM (inactive) in [14]; 18.5 µM (inactive) in [15]; 24.5 µM (inactive) in [16]; 33.5 µM (inactive) in [17]; 28.2 µM (inactive) in [18]. The GI50 in [19] was 23.3 µM (inactive); in assay [20] it was 26.7 µM (inactive).
With `COc1ccc2c(c1)C(=O)c1ccccc1C2`, the GI50 is 70.5 µM (inactive) in [1]; 71.4 µM (inactive) in assay [2]; 16.3 µM (inactive) in assay [3]; 19.7 µM (inactive) in [4]; 29.2 µM (inactive) in assay [5]; 51.8 µM (inactive) in assay [6]. For the same compound, the GI50 in [7] was 79.6 µM (inactive); in assay [8] it was 50.6 µM (inactive); in assay [9], 17.1 µM (inactive); in [10], > 100 µM (inactive); in [11], 82.2 µM (inactive); in assay [12], 58.6 µM (inactive). In addition, the GI50 in assay [13] was 47.4 µM (inactive); in assay [14], 93.8 µM (inactive); in [15] it was 64 µM (inactive); in [16] it was 29.7 µM (inactive); in assay [17] it was 40.3 µM (inactive); in [18], 48.3 µM (inactive). Further, the GI50 is 38.8 µM (inactive) in [19] and 18.9 µM (inactive) in assay [20].
In the case of `COC(=O)/C=C1/OC(c2ccc(C)cc2)=C(Cl)C1=O`, the GI50 in assay [1] is 16.4 µM (inactive); in assay [2] it was 10.7 µM (inactive); in assay [3] it was 3.31 µM (inactive); in assay [4], 15.3 µM (inactive); in [5], 13.8 µM (inactive); in assay [6] it was 17.1 µM (inactive). In addition, the GI50 is 16 µM (inactive) in [7]; 19.9 µM (inactive) in [8]; 17.7 µM (inactive) in [9]; 16.9 µM (inactive) in assay [10]; 12.4 µM (inactive) in assay [11]; 12.9 µM (inactive) in assay [12]. For the same compound, the GI50 is 9.4 µM (inactive) in assay [13]; 18.1 µM (inactive) in [14]; 15.2 µM (inactive) in assay [15]; 17.9 µM (inactive) in [16]; 4.97 µM (inactive) in assay [17]; 16.7 µM (inactive) in assay [18]. For the same compound, the GI50 in assay [19] is 16.5 µM (inactive); in assay [20] it was 16.9 µM (inactive).
As to `CCOC(CN(C)C(=S)Nc1cccc2ccccc12)OCC`, the GI50 in assay [1], in assay [2], in assay [3], in assay [4], in assay [5] and in assay [6] was > 10 µM (inactive) throughout. The GI50 in assay [7], in assay [8], in [9], in assay [10], in assay [11] and in assay [12] was > 10 µM (inactive) each time. In addition, the GI50 in assay [13] is > 10 µM (inactive); in assay [14], > 10 µM (inactive); in assay [15] it was 5.51 µM (inactive); in assay [16], 6.95 µM (inactive); in assay [17] it was > 10 µM (inactive); in assay [18], > 10 µM (inactive). For the same compound, the GI50 in assay [19] and in assay [20] was > 10 µM (inactive) each time.
For `CCOC(=O)c1sc2nc(SC)nc(Nc3ccc(OC)c(OC)c3)c2c1N`, the GI50 in assay [1] is 14.3 µM (inactive); in assay [2], 7 µM (inactive); in assay [3], > 100 µM (inactive); in assay [4], 6.08 µM (inactive); in assay [5], 63.8 µM (inactive); in assay [6], 4.74 µM (inactive). The GI50 was 89.9 µM (inactive) in [7]; 6.04 µM (inactive) in assay [8]; 20.2 µM (inactive) in [9]; 4.81 µM (inactive) in assay [10]; 9.35 µM (inactive) in assay [11]; 78 µM (inactive) in assay [12]. Besides, the GI50 in assay [13] is 5.79 µM (inactive); in assay [14] it was 42.4 µM (inactive); in [15], 9.89 µM (inactive); in assay [16] it was 4.76 µM (inactive); in [17], > 100 µM (inactive); in [18], 19.7 µM (inactive). The GI50 was > 100 µM (inactive) in assay [19] and 3.78 µM (inactive) in [20].
Regarding `NC(=O)c1ccc2c(c1)S(=O)(=O)c1ccccc1C2=O`, the GI50 is 35.9 µM (inactive) in assay [1]; > 100 µM (inactive) in assay [2]; > 100 µM (inactive) in [3]; > 100 µM (inactive) in [4]; > 100 µM (inactive) in assay [5]; > 100 µM (inactive) in [6]. Further, the GI50 is > 100 µM (inactive) in [7]; 45 µM (inactive) in [8]; > 100 µM (inactive) in [9]; 33.1 µM (inactive) in [10]; > 100 µM (inactive) in assay [11]; > 100 µM (inactive) in [12]. Also, the GI50 in assay [13] was > 100 µM (inactive); in assay [14], > 100 µM (inactive); in assay [15], 63.2 µM (inactive); in assay [16], > 100 µM (inactive); in assay [17], > 100 µM (inactive); in assay [18] it was > 100 µM (inactive). In addition, the GI50 in [19] is > 100 µM (inactive); in assay [20] it was 65.2 µM (inactive).
